Each structure is given as a SMILES string.

Test [1] concerns the target T1, GPR84 (Homo sapiens, UniProt Q9NQS5). Briefly: Human neutrophil migration inhibition assay, Embelin as chemotactic agent. Format: cell-based. Conditions: for inhibition at 0.1 µM / inhibition at 1 µM / inhibition at 10 µM: 5 μM Embelin; for inhibition at 0.1 µM: compound 0.1 μM, read-out: Percentage of chemotaxis inhibition (PIN) @ 0.1 μM; for inhibition at 1 µM: compound 1 μM, read-out: Percentage of chemotaxis inhibition (PIN) @ 1 μM; for inhibition at 10 µM: compound 10 μM, read-out: Percentage of chemotaxis inhibition (PIN) @ 10 μM; for IC50: human neutrophils, Embelin as chemotactic agent, read-out: Embelin-induced neutrophil chemotaxis IC50.

Test [2] relates to IL8-stimulated chemotaxis of neutrophils. Briefly: Human neutrophil migration assay, IL8 as chemotactic agent. As to conditions: for inhibition at 0.1 µM: read-out: Percentage of chemotaxis inhibition (PIN) @ 0.1 μM; for inhibition at 1 µM: read-out: Percentage of chemotaxis inhibition (PIN) @ 1 μM; for inhibition at 10 µM: read-out: Percentage of chemotaxis inhibition (PIN) @ 10 μM.
Experimental: In the neutrophil migration assay, neutrophils, freshly isolated from buffy coats from human volunteers, are treated with a compound for 30 minutes. Subsequently, the neutrophils are transferred to the upper wells of a Corning HTS transwell 96 permeable support system, of which the lower wells are filled with a Embelin solution.
A human buffy coat is diluted with an equal volume of ice cold DPBS. 20 mL of the diluted buffy coat was gently mixed with 4 mL of ACD buffer (140 mM citric acid, 200 mM sodium citrate and 220 mM dextrose). Then, 12 mL of the 6% dextran/0.9% NaCl solution (15 g dextran T2000 and 2.25 g NaCl dissolved in 250 mL H2O) is added to the mixture and the samples are inverted gently up to 20 times. The total volume is transferred to a new recipient and incubated at room temperature for 1 h for complete separation of the two phases to occur. The yellowish supernatant is then transferred to a clean centrifugation tube and centrifuged for 12 minutes at 1300 rpm and 4° C. After centrifugation, the supernatant is discarded and the remaining cell pellet is rapidly resuspended in 12 mL of ice-cold H2O for red blood cell lysis to occur. After 20 seconds, 4 mL of ice-cold 0.6 M KCl is added.
A cell suspension of 8.9×10^6 cells per milliliter is prepared. 20 μL of compound solution in chemotaxis buffer is added to 180 μL cell suspension. The mixture is incubated at 37° C. for 30 minutes with intermediate resuspension of the cells after 15 minutes. […] The receiver well of the transwell system is then filled with 200 μL chemotaxis buffer containing compound and chemotactic agent (Embelin). After incubation at 37° C. in 5% CO2 for 1 h, the upper plate of the transwell system was removed and the cell suspension in the receiver plate is transferred to a 96-well V-bottom plate. 50 μL of DPBS is added to the receiver plate to prevent remaining cells from drying out. The V-bottom plate is centrifuged for 6 minutes at 1500 rpm. The supernatant is removed and the cells are resuspended in 50 μL DPBS. The cells are then transferred back to the receiver plate of the transwell system. […] The plate is incubated for 10 minutes in the dark, while shaking. 170 μL of cell lysate is then transferred to a white 96-well plate and luminescence is measured. The detected luminescent signal is considered as linearly related to the number of cells having migrated from the upper well to the receiver well.
The same assay as described above is also performed using IL8 (25 ng/mL) as a chemotactic agent instead of Embelin.

Test [3] addresses T1, GPR84. The test can be described thus: Functional GPR84 activation assay: GTP-γS binding assay. Format: biochemical. Also noted: expressed in transfected cells. Conditions: membranes over expressing GPR84; 3,3′ di indolylmethane at EC80; read-out: GTPgS binding EC50. As to the method:
The following assay can be used for determination of GPR84 activation.
The assay is performed in a 96 well plate where the following reagents were added. […] In a last step, 30 μL of a mixture consisting of membranes-GTPγS-SpA beads is added [mixture consists of 20 μg/well membranes derived from stable cell line over expressing GPR84 (membranes are pre-incubated with 0.1 μM GDP for 15 min at 4° C.), 0.1 nM [^35S]GTPγS (Perkin Elmer, NEG030) and 0.5 mg/well PVT-WGA SpA beads (Perkin Elmer, RPNQ0001)]. All components are diluted in assay buffer containing 20 mM Hepes pH 7.4; 5 mM MgCl2; 250 mM NaCl; 0.05% BSA; 75 ug/mL saponin. Reactions are incubated for 90 min at room temperature followed by centrifugation at 2000 rpm for 15 min. Plates are read on a Topcount reader (Perkin Elmer) immediately after centrifugation (readout time, 1 min/well).

T1 sequence (Q9NQS5 whole entry): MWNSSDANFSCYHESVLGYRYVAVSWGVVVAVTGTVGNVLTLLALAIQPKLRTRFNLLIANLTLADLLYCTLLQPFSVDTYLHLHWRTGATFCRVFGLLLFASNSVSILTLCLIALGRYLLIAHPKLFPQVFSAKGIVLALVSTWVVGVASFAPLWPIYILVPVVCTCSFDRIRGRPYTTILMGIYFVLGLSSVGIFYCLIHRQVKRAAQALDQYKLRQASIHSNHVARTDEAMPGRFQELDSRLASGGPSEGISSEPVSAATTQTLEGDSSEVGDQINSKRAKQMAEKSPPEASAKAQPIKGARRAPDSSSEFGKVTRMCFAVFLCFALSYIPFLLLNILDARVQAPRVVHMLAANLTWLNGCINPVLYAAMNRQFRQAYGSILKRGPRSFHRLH

As usually defined, the inhibition is the drop in the measured response relative to a control, in per cent. For orientation: IC50 means the point on the concentration scale where inhibition reaches its midpoint. As a reminder, the EC50 is the concentration that produces a half-maximal response. Turning to `O=c1nc(OCC2COCCO2)cc2n1CCc1cc(OCc3noc(C4CC4)n3)ccc1-2` (stereo not shown) [Cpd 1, 9-(5-Cyclopropyl-[1,2,4]oxadiazol-3-ylmethoxy)-2-([1,4]dioxan-2-ylmethoxy)-6,7-dihydro-pyrimido[6,1-a]isoquinolin-4-one], at GPR84 [1], the inhibition at 0.1 µM is 69%, the inhibition at 1 µM worked out at 86%, the inhibition at 10 µM is 89% and the IC50 came out at 10.4 nM. In test [2], the inhibition at 0.1 µM is 1%, the inhibition at 1 µM was -11% and the inhibition at 10 µM turned out to be 17%. On GPR84 [3], the EC50 was determined as 36 nM.
For the compound `CCCC(O)C#Cc1ccc2c(c1)CCn1c-2cc(OCC2COCCO2)nc1=O` (stereo not shown) [Cpd 2, 2-([1,4]Dioxan-2-ylmethoxy)-9-(3-hydroxy-hex-1-ynyl)-6,7-dihydro-pyrimido[6,1-a]isoquinolin-4-one], at GPR84 [1], the inhibition at 0.1 µM turned out to be 86%, the inhibition at 1 µM worked out at 94%, the inhibition at 10 µM turned out to be 90% and the IC50 came out at 2.74 nM. Besides, in test [2], the inhibition at 0.1 µM worked out at 13%, the inhibition at 1 µM is -6% and the inhibition at 10 µM was 20%. The EC50 at GPR84 [3] turned out to be 40 nM.
For the compound `O=c1nc(OCC2COCCO2)cc2n1CCc1cc(C#CCNc3ccccc3)ccc1-2` (stereo not shown) [Cpd 3, 2-([1,4]Dioxan-2-ylmethoxy)-9-(3-phenylamino-prop-1-ynyl)-6,7-dihydro-pyrimido[6,1-a]isoquinolin-4-one], at GPR84 [1], the inhibition at 0.1 µM was determined as 38%, the inhibition at 1 µM came out at 81%, the inhibition at 10 µM is 72% and the IC50 is 6.34 nM. In addition, in test [2], the inhibition at 0.1 µM came to 2%, the inhibition at 1 µM was determined as 1% and the inhibition at 10 µM is -13%. Further, at GPR84 [3], the EC50 was 25 nM.
On to `O=c1nc(OCC2COCCO2)cc2n1CCc1cc(COC3CCCC3)ccc1-2` (stereo not shown) [Cpd 4, 9-Cyclopentyloxymethyl-2-([1,4]dioxan-2-ylmethoxy)-6,7-dihydro-pyrimido[6,1-a]isoquinolin-4-one], for which, in test [2], the inhibition at 0.1 µM was determined as 3%, the inhibition at 1 µM worked out at 3% and the inhibition at 10 µM is 19%.
As to `CC(C)C#Cc1ccc2c(c1)CCn1c-2cc(OC[C@@H]2COCCO2)nc1=O` [Cpd 5, 2-((S)-1-[1,4]Dioxan-2-ylmethoxy)-9-(3-methyl-but-1-ynyl)-6,7-dihydro-pyrimido[6,1-a]isoquinolin-4-one], at GPR84 [1], the inhibition at 0.1 µM amounted to 73%, the inhibition at 1 µM came out at 97%, the inhibition at 10 µM came to 96% and the IC50 was 62.2 nM. In test [2], the inhibition at 0.1 µM came out at 30%, the inhibition at 1 µM amounted to 29% and the inhibition at 10 µM was 48%. Further, the EC50 on GPR84 [3] is 77 nM.
With `O=c1nc(OC[C@H]2COCCO2)cc2n1CCc1cc(COC3CCCC3)ccc1-2` [Cpd 6, 9-Cyclopentyloxymethyl-2-((R)-1-[1,4]dioxan-2-ylmethoxy)-6,7-dihydro-pyrimido[6,1-a]isoquinolin-4-one], in test [2], the inhibition at 0.1 µM was 20%, the inhibition at 1 µM worked out at 15% and the inhibition at 10 µM is 35%.
Consider `CC(O)CCCc1ccc2c(c1)CCn1c-2cc(OC[C@@H]2COCCO2)nc1=O` (stereo partly drawn) [Cpd 11, 2-((S)-1-[1,4]Dioxan-2-ylmethoxy)-9-(4-hydroxy-pentyl)-6,7-dihydro-pyrimido[6,1-a]isoquinolin-4-one], for which, on GPR84 [1], the inhibition at 0.1 µM turned out to be 66%, the inhibition at 1 µM came out at 90%, the inhibition at 10 µM turned out to be 86% and the IC50 was 3.9 nM. For the same compound, in test [2], the inhibition at 0.1 µM turned out to be 7%, the inhibition at 1 µM stood at 0% and the inhibition at 10 µM stood at 12%.
As to `CCCCCCCCCC(=O)[O-].[Na+]` [sodium decanoate, reference compound], on GPR84 [1] (GPR84 agonist used as chemotactic agent), the “induction of neutrophil chemotaxis” value is given as “induce neutrophil chemotaxis”.

The values are drawn from patent US9945843B2, “Methods for identifying compounds that inhibit G protein-coupled receptor (GPR84) agonist-stimulated chemotaxis” (GALAPAGOS NV, priority 2011, dated 2018).
